We go through 5 compounds from patent US20140112957A1, “Analegisic (Sebacoyl dinalbuphine ester) PLGA controlled release formulation form” (OLIVER YAO-PU HU, priority 2012, published 2014).

A short description of data set [1]: drug saturated solubility in water. The format is physicochemical.
Data set [2] can be described thus: oil-in-water coefficient (logP) of nalbuphine and pro-soft drugs. The format is physicochemical.
The conditions of data set [3]: PLGA microspheres, subcutaneous injection, 50 mg/rabbit; cited from earlier work.

Usually Aqueous solubility stands for the concentration that dissolves in the medium under given conditions. The low end stands for little dissolved substance, the high end for much dissolved substance. The logP is the decadic logarithm of the partition coefficient of the neutral form, usually between octanol and water. A low value points to a more hydrophilic compound.

Regarding `CCCCCCCCCC(=O)Oc1ccc2c3c1O[C@H]1[C@@H](O)CC[C@@]4(O)[C@@H](C2)N(CC2CCC2)CC[C@]314` [Nalbuphine decanoate], the Aqueous solubility in data set [1] came out at 0.67 µg/mL. This compound returned a logP in data set [2] of 3.30. Besides, in data set [3], the “time the effective serum concentration lasted” value is 4 days.

For `CC(C)(C)C(=O)Oc1ccc2c3c1O[C@H]1[C@@H](O)CC[C@@]4(O)[C@@H](C2)N(CC2CCC2)CC[C@]314` [Nalbuphine pivalate], in data set [1], the Aqueous solubility was found to be 33.67 µg/mL. This compound also displayed a logP in data set [2] of 1.42. Besides, the “time the effective serum concentration lasted” value in data set [3] is 4 days.

With `CCC(=O)Oc1ccc2c3c1O[C@H]1[C@@H](O)CC[C@@]4(O)[C@@H](C2)N(CC2CCC2)CC[C@]314` [Nalbuphine propionate], the Aqueous solubility in data set [1] was 44.67 µg/mL. For the same compound, in data set [2], the logP came out at 1.05. The “time the effective serum concentration lasted” value in data set [3] is listed as 4 days.

As for `O=C(CCCCCCCCC(=O)Oc1ccc2c3c1O[C@H]1[C@@H](O)CC[C@@]4(O)[C@@H](C2)N(CC2CCC2)CC[C@]314)Oc1ccc2c3c1O[C@H]1[C@@H](O)CC[C@@]4(O)[C@@H](C2)N(CC2CCC2)CC[C@]314` [Sebacoyl dinalbuphine ester], in data set [1], the Aqueous solubility is below 0.25 µg/mL. This compound displayed a logP in data set [2] of 3.15.

`CCCCCCC(=O)Oc1ccc2c3c1O[C@H]1[C@@H](O)CC[C@@]4(O)[C@@H](C2)N(CC2CCC2)CC[C@]314` [Nalbuphine enanthate] returned an Aqueous solubility in data set [1] of 3.00 µg/mL. The log partition coefficient (logP) in data set [2] turned out to be 1.94.
